The target in data set [1] is T1, full-length beta-Catenin (Uniprot ID P35222) (Homo sapiens, UniProt P35222).
T1 construct: 10 nM full-length beta-Catenin (Uniprot ID P35222)
T1 sequence (P35222 1-781): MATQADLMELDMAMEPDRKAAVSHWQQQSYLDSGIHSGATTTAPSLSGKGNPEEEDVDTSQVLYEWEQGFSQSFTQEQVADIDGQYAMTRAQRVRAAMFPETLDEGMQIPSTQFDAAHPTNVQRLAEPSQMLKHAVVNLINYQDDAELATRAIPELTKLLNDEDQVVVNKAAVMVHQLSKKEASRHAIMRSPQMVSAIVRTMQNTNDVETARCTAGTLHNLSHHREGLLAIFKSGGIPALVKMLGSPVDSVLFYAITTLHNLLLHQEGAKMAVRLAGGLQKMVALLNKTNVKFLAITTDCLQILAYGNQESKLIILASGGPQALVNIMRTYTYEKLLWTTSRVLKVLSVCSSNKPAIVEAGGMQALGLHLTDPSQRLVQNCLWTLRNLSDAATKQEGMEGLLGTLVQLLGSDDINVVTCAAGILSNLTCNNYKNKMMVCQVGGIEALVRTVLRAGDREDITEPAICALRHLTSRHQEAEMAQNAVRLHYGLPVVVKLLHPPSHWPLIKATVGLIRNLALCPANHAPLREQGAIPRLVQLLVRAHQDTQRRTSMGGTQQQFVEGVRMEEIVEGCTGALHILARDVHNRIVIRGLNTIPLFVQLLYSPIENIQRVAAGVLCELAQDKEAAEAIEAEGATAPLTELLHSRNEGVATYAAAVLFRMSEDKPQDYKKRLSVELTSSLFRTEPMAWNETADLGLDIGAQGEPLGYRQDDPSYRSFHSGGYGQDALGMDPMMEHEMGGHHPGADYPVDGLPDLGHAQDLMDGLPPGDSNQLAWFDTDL
As to the kind of experiment: Fluorescence polarization IC50 (beta-catenin / 5FAM-TCF4 10-53 competition). In kind it is binding. Conditions: read-out: beta-Catenin FP IC50.

The target of data set [2] is T2, beta-catenin/TCF4 engagement (Homo sapiens, UniProt P35222).
T2 construct: expressed in transfected cells; host or cells: HEK293
T2 sequence (P35222 1-781): T1 sequence (P35222 1-781)
As to the kind of experiment: Nano-BRET target engagement assay (B-cat-Halo & TCF4-Luc in HEK293 cells). In kind it is cell-based. The settings on record: absolute IC50; read-out: NanoBRET Abs IC50.

A short description of data set [3]: Solubility in PBS. In kind it is physicochemical. In a few lines:
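Steps: ultracentrifuge the peptide PBS solution, inject the supernatant on HPLC, inject a 50 μM peptide DMSO solution as reference, then calculate solubility as area ratio (PBS/DMSO) × 50 uM.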

Values after ≈ are worked out from the molar mass of the structure shown. Where two headings read alike, the source gives them in different places.

This is an account of results in patent US20240116985A1, “STAPLED PEPTIDES AND METHODS THEREOF” (priority 2020, published 2024).

As to `CC(=O)N1CCC[C@]12CC=CCCCC1(CCCC=CCCCOC(=O)N3CC[C@@](C(=O)N[C@@H](Cc4ccccc4Cl)C(=O)N[C@@H](Cc4csc5ccccc45)C(=O)N[C@@H](CCC(N)=O)C(N)=O)(C3)NC(=O)[C@H](CC(N)=O)NC(=O)[C@H](Cc3ccccc3)NC(=O)[C@H](CCCCNC(C)C)NC(=O)[C@H](C)NC(=O)[C@H](CC(=O)O)NC(=O)[C@H](CC(=O)O)NC1=O)NC(=O)[C@H](CC(C)(C)C)NC(=O)[C@H](CC(=O)O)NC2=O` (stereo partly drawn) [I-1132, Ac-PL3-Asp-Npg-B5-Asp-Asp-Ala-iPrLys-Phe-Asn-PyrS2-2C1F-BztA-Gln-NH2], the results for the concentration for half-maximal inhibition (IC50) in data set [1] and in data set [2] were 0.021 µM and > 20 µM, respectively. In addition, the Solubility in data set [3] (Solubility (uM)) is 49 µM (≈ 100 µg/mL).

Regarding `CC(=O)N1CCC[C@]12CC=CCCCC1(CCCC=CCCCOC(=O)N3CC[C@@](C(=O)N[C@@H](Cc4ccccc4Cl)C(=O)N[C@@H](Cc4csc5ccccc45)C(=O)N[C@@H](C(N)=O)[C@H](C)O)(C3)NC(=O)[C@H](CO)NC(=O)[C@H](Cc3ccccc3)NC(=O)[C@H](C)NC(=O)[C@H](C)NC(=O)[C@H](CC(=O)O)NC(=O)[C@H](CC(=O)O)NC1=O)NC(=O)[C@H](CC1CCCCC1)NC(=O)[C@H](CC(=O)O)NC2=O` (stereo partly drawn) [I-1136, Ac-PL3-Asp-Cha-B5-Asp-Asp-Ala-Ala-Phe-Ser-PyrS2-2C1F-BztA-dThr-NH2], the results for the IC50 in data set [1] (fluorescence polarization) and in data set [2] were 0.016 µM and 14.9 µM, respectively. The compound further yielded a Solubility in data set [3] (Solubility (uM)) of 40 µM (≈ 76.7 µg/mL).

With `CC(=O)N1CCC[C@]12CC=CCCCC1(CCCC=CCCCOC(=O)N3CC[C@@](C(=O)N[C@@H](Cc4ccccc4Cl)C(=O)N[C@@H](Cc4csc5ccccc45)C(=O)N[C@@H](C(N)=O)[C@H](C)O)(C3)NC(=O)[C@H](CC(C)C)NC(=O)[C@H](Cc3ccccc3)NC(=O)[C@H](C)NC(=O)[C@H](C)NC(=O)[C@H](CC(=O)O)NC(=O)[C@H](CC(=O)O)NC1=O)NC(=O)[C@H](CC1CCCCC1)NC(=O)[C@H](CC(=O)O)NC2=O` (stereo partly drawn) [I-1140, Ac-PL3-Asp-Cha-B5-Asp-Asp-Ala-Ala-Phe-Leu-PyrS2-2C1F-BztA-dThr-NH2], the 50% inhibitory concentration (IC50) in data set [1] (fluorescence polarization) is 0.033 µM; in data set [2], 32.5 µM. Besides, the “Solubility” value in data set [3] turned out to be 10 µM (≈ 19.4 µg/mL).

Take `CC(=O)N1CCC[C@]12CC=CCCCC1(CCCC=CCCCOC(=O)N3CC[C@@](C(=O)N[C@@H](Cc4ccccc4Cl)C(=O)N[C@@H](Cc4csc5ccccc45)C(=O)N[C@H](C(N)=O)[C@@H](C)O)(C3)NC(=O)[C@H](CO)NC(=O)[C@H](Cc3ccccc3)NC(=O)[C@H](C)NC(=O)[C@H](C)NC(=O)[C@H](CC(=O)O)NC(=O)[C@H](CC(=O)O)NC1=O)NC(=O)[C@H](Cc1ccccc1)NC(=O)[C@H](CC(=O)O)NC2=O` (stereo partly drawn) [I-1141, Ac-PL3-Asp-Phe-B5-Asp-Asp-Ala-Ala-Phe-Ser-PyrS2-2C1F-BztA-Thr-NH2]: the IC50 was 0.013 µM in data set [1] (fluorescence polarization) and 27.3 µM in data set [2]. The amount in solution in data set [3] (Solubility (uM)) (Solubility) came to 44 µM (≈ 84.2 µg/mL).

On to `CC(=O)N1CCC[C@]12CC=CCCCC1(CCCC=CCCCOC(=O)N3CC[C@@](C(=O)N[C@@H](Cc4ccccc4Cl)C(=O)N[C@@H](Cc4csc5ccccc45)C(=O)N[C@@H](C(N)=O)[C@H](C)O)(C3)NC(=O)[C@H](CO)NC(=O)[C@H](Cc3ccccc3)NC(=O)[C@H](C)NC(=O)[C@H](C)NC(=O)[C@H](CC(=O)O)NC(=O)[C@H](CC(=O)O)NC1=O)NC(=O)[C@H](Cc1ccccc1)NC(=O)[C@H](CC(=O)O)NC2=O` (stereo partly drawn) [I-1142, Ac-PL3-Asp-Phe-B5-Asp-Asp-Ala-Ala-Phe-Ser-PyrS2-2C1F-BztA-dThr-NH2], for which the IC50 in data set [1] (fluorescence polarization) was 0.022 µM; in data set [2], > 20 µM. Besides, the concentration in solution in data set [3] (Solubility (uM)) (Solubility) was 46 µM (≈ 88 µg/mL).

Take `CC(=O)N1CCC[C@]12CC=CCCCC1(CCCC=CCCCOC(=O)N3CC[C@@](C(=O)N[C@@H](Cc4ccccc4Cl)C(=O)N[C@@H](Cc4csc5ccccc45)C(=O)N[C@@H](CCO)C(N)=O)(C3)NC(=O)[C@H](CO)NC(=O)[C@H](Cc3ccccc3)NC(=O)[C@H](C)NC(=O)[C@H](C)NC(=O)[C@H](CC(=O)O)NC(=O)[C@H](CC(=O)O)NC1=O)NC(=O)[C@H](Cc1ccccc1)NC(=O)[C@H](CC(=O)O)NC2=O` (stereo partly drawn) [I-1143, Ac-PL3-Asp-Phe-B5-Asp-Asp-Ala-Ala-Phe-Ser-PyrS2-2C1F-BztA-Hse-NH2]: the results for the IC50 in data set [1] (fluorescence polarization) and in data set [2] were 0.012 µM and 33.1 µM, respectively. Besides, the Solubility in data set [3] (Solubility (uM)) is 44 µM (≈ 84.2 µg/mL).

Turning to `CC(=O)N1CCC[C@]12CC=CCCCC1(CCCC=CCCCOC(=O)N3CC[C@@](C(=O)N[C@@H](Cc4ccccc4Cl)C(=O)N[C@@H](Cc4csc5ccccc45)C(=O)N[C@H](C(N)=O)[C@@H](C)O)(C3)NC(=O)[C@H](CC(C)C)NC(=O)[C@H](Cc3ccccc3)NC(=O)[C@H](C)NC(=O)[C@H](C)NC(=O)[C@H](CC(=O)O)NC(=O)[C@H](CC(=O)O)NC1=O)NC(=O)[C@H](Cc1ccccc1)NC(=O)[C@H](CC(=O)O)NC2=O` (stereo partly drawn) [I-1145, Ac-PL3-Asp-Phe-B5-Asp-Asp-Ala-Ala-Phe-Leu-PyrS2-2C1F-BztA-Thr-NH2], the concentration for half-maximal inhibition (IC50) in data set [1] (fluorescence polarization) came out at 0.018 µM; in data set [2], 30.6 µM. In data set [3], the “Solubility” value came out at 10 µM (≈ 19.4 µg/mL).

As to `CC(=O)N1CCC[C@]12CC=CCCCC1(CCCC=CCCCOC(=O)N3CC[C@@](C(=O)N[C@@H](Cc4ccccc4Cl)C(=O)N[C@@H](Cc4csc5ccccc45)C(=O)N[C@@H](C(N)=O)[C@H](C)O)(C3)NC(=O)[C@H](CC(C)C)NC(=O)[C@H](Cc3ccccc3)NC(=O)[C@H](C)NC(=O)[C@H](C)NC(=O)[C@H](CC(=O)O)NC(=O)[C@H](CC(=O)O)NC1=O)NC(=O)[C@H](Cc1ccccc1)NC(=O)[C@H](CC(=O)O)NC2=O` (stereo partly drawn) [I-1146, Ac-PL3-Asp-Phe-B5-Asp-Asp-Ala-Ala-Phe-Leu-PyrS2-2C1F-BztA-dThr-NH2], the IC50 in data set [1] (fluorescence polarization) is 0.033 µM; in data set [2] it was > 20 µM. Further, in data set [3] (Solubility (uM)), the concentration in solution (Solubility) was 18 µM (≈ 34.9 µg/mL).

Consider `CC(=O)N1CCC[C@]12CC=CCCCC1(CCCC=CCCCOC(=O)N3CC[C@@](C(=O)N[C@@H](Cc4ccccc4Cl)C(=O)N[C@@H](Cc4csc5ccccc45)C(=O)N[C@@H](CCC(N)=O)C(N)=O)(C3)NC(=O)[C@H](CO)NC(=O)[C@H](Cc3ccccc3)NC(=O)[C@H](C)NC(=O)[C@H](CC(C)C)NC(=O)[C@H](CC(=O)O)NC(=O)[C@H](CC(=O)O)NC1=O)NC(=O)[C@H](CC1CCCCC1)NC(=O)[C@H](CC(=O)O)NC2=O` (stereo partly drawn) [I-1147, Ac-PL3-Asp-Cha-B5-Asp-Asp-Leu-Ala-Phe-Ser-PyrS2-2C1F-BztA-Gln-NH2], for which the 50% inhibitory concentration (IC50) in data set [1] (fluorescence polarization) amounted to 0.01 µM; in data set [2], 21.1 µM. The same compound came in with a Solubility in data set [3] (Solubility (uM)) of 23 µM (≈ 45.7 µg/mL).

Consider `CC(=O)N1CCC[C@]12CC=CCCCC1(CCCC=CCCCOC(=O)N3CC[C@@](C(=O)N[C@@H](Cc4ccccc4Cl)C(=O)N[C@@H](Cc4csc5ccccc45)C(=O)N[C@@H](CCC(N)=O)C(N)=O)(C3)NC(=O)[C@H](CO)NC(=O)[C@H](Cc3ccccc3)NC(=O)[C@H](CC(C)C)NC(=O)[C@H](C)NC(=O)[C@H](CC(=O)O)NC(=O)[C@H](CC(=O)O)NC1=O)NC(=O)[C@H](CC1CCCCC1)NC(=O)[C@H](CC(=O)O)NC2=O` (stereo partly drawn) [I-1148, Ac-PL3-Asp-Cha-B5-Asp-Asp-Ala-Leu-Phe-Ser-PyrS2-2C1F-BztA-Gln-NH2], for which the half-inhibitory concentration (IC50) stood at 0.05 µM in data set [1] (fluorescence polarization) and 21.5 µM in data set [2]. Moreover, the “Solubility” value in data set [3] stood at 10 µM (≈ 19.9 µg/mL).
